System: SCD1 expression
Assay: Inhibition assay: qPCR of SCD1 expression in HepG2 cells (Biological Example 1)
Format: cell-based
Details: Homo sapiens, 24 hours; for inhibition at 1 µM: read-out: Inhibition Percentage (%) 1 μM (SCD1 expression); for inhibition at 10 µM: read-out: Inhibition Percentage (%) 10 μM (SCD1 expression)
Experimental: HepG2 cells were grown in Dulbecco's Modified Eagle Medium (DMEM) containing 5% FBS and antibiotic-antimycotic in a humidified incubator at 37° C. with 5% CO2. All three components were purchased from ThermoFisher Scientific (Catalog numbers are 11995073, 26140079, and 15240062, respectively). Treatments were done in duplicates for each dose of each compound. For control and treated each treatment, 400,000 HepG2 cells were seeded onto 1 well of 24-well plate. After one day in culture, cells were treated with the test compound (1 μM and/or 10 μM, as indicated below in Table 1) for 24 hours in DMEM with 5% FBS. Compounds were diluted using DMSO from 20 mM stocks. Total RNAs were extracted using RNA extraction kit (Cat #: 45001163, Fisher Scientific) or Trizol. If Trizol was used, RNAs were treated with DNase I (cat #: 18068015, ThermoFisher Scientific) before qPCR. RNA concentrations were measured on a Nanodrop. One-step qPCR were performed using SYBR Green One Step qPCR Kit (Cat #: B25002, Biotool). 10 ng RNA was used in each 10-ul reaction. Triplicate reactions were done for each RNA sample. qPCR was performed on an ABI StepOnePlus using the program: Holding stage step 1, 50° C. 3 min, step 2, 95° C. 5 min; Cycling stage (40 cycles) step 1, 95° C. 10 sec, step 2, 60° C. 30 sec. Primer sequence was as follows: SCD1, 5′-[…]-3′/5′-[…]-3′.
All data was measured in HepG2 cells. % inhibition data of SCD1 expression are provided in Table 1. % inhibition at 10 μM is provided as follows: A≥75%; 75%>B≥50%; 50%>C≥10%. % inhibition at 1 μM is provided as follows: A1≥30%; 30%>B1≥2%. NI means no inhibition in the assay at the indicated concentration of compound tested. NT means not tested.

| Structure (SMILES) | inhibition at 1 µM [%] | inhibition at 10 µM [%] |
| --- | --- | --- |
| CCCc1cc(-n2cc(-c3ccc(NC4CCOCC4)nc3)cn2)ccn1 [Example 52, 5-(1-(2-propylpyridin-4-yl)-1H-pyrazol-4-yl)-N-(tetrahydro-2H-pyran-4-yl)pyridin-2-amine] | ≥ 30 | > 75 |
| CCCc1cc(-n2cc(-c3ccc(NS(=O)(=O)C(F)(F)F)cc3Cl)cn2)ccn1 [Example 11, N-(3-chloro-4-(1-(2-propylpyridin-4-yl)-1H-pyrazol-4-yl)phenyl)-1,1,1-trifluoromethanesulfonamide] | – | 10 to 50 |
| CCCc1cccc(-n2cc(-c3ccc(NS(C)(=O)=O)cc3)cn2)c1 [Example 47, N-(4-(1-(3-propylphenyl)-1H-pyrazol-4-yl)phenyl)methanesulfonamide] | – | 10 to 50 |
| CCCc1cc(-n2cc(-c3ccc(NCC(C)C)cc3)cn2)ccn1 [Example 3, N-isobutyl-4-(1-(2-propylpyridin-4-yl)-1H-pyrazol-4-yl)aniline] | – | > 75 |
| CCCc1cc(-n2cc(-c3ncc(NCC4CC4)cc3Cl)cn2)ccn1 [Example 27, 5-chloro-N-(cyclopropylmethyl)-6-(1-(2-propylpyridin-4-yl)-1H-pyrazol-4-yl)pyridin-3-amine] | ≥ 30 | > 75 |
| CCCc1cc(-n2cc(-c3ccc(NC4CCCC4)nc3)c(C)n2)ccn1 [Example 55, N-cyclopentyl-5-(3-methyl-1-(2-propylpyridin-4-yl)-1H-pyrazol-4-yl)pyridin-2-amine] | 2 to 30 | > 75 |
| CCCc1cc(-n2cc(-c3ccc(NC(C)C)nc3)c(C)n2)ccn1 [Example 56, N-isopropyl-5-(3-methyl-1-(2-propylpyridin-4-yl)-1H-pyrazol-4-yl)pyridin-2-amine] | 2 to 30 | > 75 |
| CCCc1cc(-n2cc(-c3ccc(NC4CCCC4)nc3)cn2)ccn1 [Example 32, N-cyclopentyl-5-(1-(2-propylpyridin-4-yl)-1H-pyrazol-4-yl)pyridin-2-amine] | – | > 75 |
| CCCc1cc(-n2cc(-c3ccc(NCC4CC4)cc3Cl)cn2)ccn1 [Example 17, 3-chloro-N-(cyclopropylmethyl)-4-(1-(2-propylpyridin-4-yl)-1H-pyrazol-4-yl)aniline] | ≥ 30 | > 75 |
| CCCc1cc(-n2cc(-c3ncc(NC4CCCC4)cc3Cl)cn2)ccn1 [Example 25, 5-chloro-N-cyclopentyl-6-(1-(2-propylpyridin-4-yl)-1H-pyrazol-4-yl)pyridin-3-amine] | ≥ 30 | > 75 |
| CCCc1cc(-n2nc(C)c(-c3ccc(NCC4CC4)nc3)c2C)ccn1 [Example 35, N-(cyclopropylmethyl)-5-(3,5-dimethyl-1-(2-propylpyridin-4-yl)-1H-pyrazol-4-yl)pyridin-2-amine] | 2 to 30 | 50 to 75 |
| CCCc1cc(-n2cc(-c3ccc(NCC4CC4)nc3)c(C)n2)ccn1 [Example 54, N-(cyclopropylmethyl)-5-(3-methyl-1-(2-propylpyridin-4-yl)-1H-pyrazol-4-yl)pyridin-2-amine] | – | 50 to 75 |

Source: patent US11497738B2, “Di-substituted pyrazole compounds for the treatment of diseases” (FGH BIOTECH, INC., priority 2016, dated 2022)
